Results taken from patent US9241487B2, “Pyrimidine derivatives and use thereof as pesticides” (BAYER INTELLECTUAL PROPERTY GMBH, priority 2010, dated 2016).

Columns and labels:
Assay type in all cases: in vivo
Sphaerotheca fuliginea = assay: Sphaerotheca test (cucumber)/protective; details: Podosphaera fuliginea, 168 h, cucumber plants, protective spray, evaluation 7 days after inoculation, read-out: Efficacy (%)
Method: Sphaerotheca Test (Cucumber)/Protective
(§1) Solvent: 49 parts by weight of N,N-dimethylformamide
(§2) Emulsifier: 1 part by weight of alkylaryl polyglycol ether
To produce a suitable preparation of active compound, 1 part by weight of active compound is mixed with the stated amounts of solvent and emulsifier, and the concentrate is diluted with water to the desired concentration. To test for protective activity, young cucumber plants are sprayed with the preparation of active compound at the stated application rate. 1 day after the treatment, the plants are inoculated with a spore suspension of Sphaerotheca fuliginea. The plants are then placed in a greenhouse at 70% relative air humidity and a temperature of 23° C. Evaluation follows 7 days after the inoculation. 0% means an efficacy which corresponds to that of the control, whereas an efficacy of 100% means that no infection is observed. In this test, the following compounds according to the invention show, at an active compound concentration of 500 ppm, an efficacy of 70% or more: […]

Alternaria solani = assay: Alternaria test (tomato)/protective; details: 168 h, tomato plants, protective spray, evaluation 7 days after inoculation, read-out: Efficacy (%)
Method: Alternaria Test (Tomato)/Protective
as §1, §2
To produce a suitable preparation of active compound, 1 part by weight of active compound is mixed with the stated amounts of solvent and emulsifier, and the concentrate is diluted with water to the desired concentration. To test for protective activity, young tomato plants are sprayed with the preparation of active compound at the stated application rate. 1 day after the treatment, the plants are inoculated with a spore suspension of Alternaria solani and then remain at 100% rd. humidity and 22° C. for 24 h. The plants then remain at 96% rd. atmospheric humidity and a temperature of 20° C. Evaluation is carried out 7 days after the inoculation. 0% means an efficacy which corresponds to that of the control, whereas an efficacy of 100% means that no infection is observed.
(§3) In this test, the following compounds according to the invention show, at an active compound concentration of 500 ppm, an efficacy of 70% or more: […]

Venturia inaequalis = assay: Venturia test (apple)/protective; details: 240 h, protective spray, evaluation 10 days after inoculation, read-out: Efficacy (%)
Method: Venturia Test (Apple)/Protective
Solvents: 24.5 parts by weight of acetone
• 24.5 parts by weight of dimethylacetamide Emulsifier: 1 part by weight of alkylaryl polyglycol ether
To produce a suitable preparation of active compound, 1 part by weight of active compound is mixed with the stated amounts of solvent and emulsifier, and the concentrate is diluted with water to the desired concentration. To test for protective activity, young plants are sprayed with the preparation of active compound at the stated application rate. After the spray coating has dried on, the plants are inoculated with an aqueous conidia suspension of the apple scab pathogen Venturia inaequalis and then remain in an incubation cabin at approx. 20° C. and 100% relative air humidity for 1 day. The plants are then placed in the greenhouse at about 21° C. and a relative atmospheric humidity of about 90%. Evaluation follows 10 days after the inoculation. 0% means an efficacy which corresponds to that of the control, whereas an efficacy of 100% means that no infection is observed.
In this test, the following compounds according to the invention show, at an active compound concentration of 100 ppm, an efficacy of 70% or more: […]

[1] = tested on: Blumeria graminis fsp. hordei; assay: Blumeria graminis test (barley)/protective; details: 168 h, protective spray, evaluation 7 days after inoculation, read-out: Efficacy (%)
Method: Blumeria graminis Test (Barley)/Protective
(§4) Solvent: 49 parts by weight of N,N-dimethylacetamide
as §2
To produce a suitable preparation of active compound, 1 part by weight of active compound is mixed with the stated amounts of solvent and emulsifier, and the concentrate is diluted with water to the desired concentration. To test for protective activity, young plants are sprayed with the preparation of active compound at the stated application rate. After the spray coating has dried on, the plants are dusted with spores of Blumeria graminis fsp. hordei. The plants are placed in a greenhouse at a temperature of about 18° C. and a relative air humidity of about 80% to promote the development of mildew pustules. Evaluation follows 7 days after the inoculation. 0% means an efficacy which corresponds to that of the control, whereas an efficacy of 100% means that no infection is observed.
as §3

Septoria tritici = Septoria tritici test (wheat)/protective; details: Zymoseptoria tritici, 504 h, protective spray, evaluation 21 days after inoculation, read-out: Efficacy (%)
Method: Septoria tritici Test (Wheat)/Protective
as §4, §2
To produce a suitable preparation of active compound, 1 part by weight of active compound is mixed with the stated amounts of solvent and emulsifier, and the concentrate is diluted with water to the desired concentration. To test for protective activity, young plants are sprayed with the preparation of active compound at the stated application rate. After the spray coating has dried on, the plants are sprayed with a spore suspension of Septoria tritici. The plants remain in an incubation cabin at 20° C. and 100% relative atmospheric humidity for 48 hours. Thereafter, the plants are placed under a translucent hood at 15° C. and 100% relative air humidity for a further 60 hours. The plants are placed in a greenhouse at a temperature of about 15° C. and a relative atmospheric humidity of about 80%. Evaluation follows 21 days after the inoculation. 0% means an efficacy which corresponds to that of the control, whereas an efficacy of 100% means that no infection is observed.
as §3

Phakopsora pachyrhizi = Phakopsora pachyrhizi test (soya bean)/protective; details: protective spray, 100 ppm, evaluation 11 days after inoculation
Method: Phakopsora pachyrhizi Test (Soya Bean)/Protective
Solvent: 28.5 parts by weight of acetone
Emulsifier: 1.5 part by weight of polyoxyethylene alkylphenyl ether
To produce a suitable preparation of active compound, 1 part by weight of active compound is mixed with the stated amounts of solvent and emulsifier, and the concentrate is diluted with water to the desired concentration. To test for protective activity, young plants are sprayed with the preparation of active compound at the stated application rate. 1 day after spraying, the plants are inoculated with an aqueous spore suspension of the soya bean rust pathogen (Phakopsora pachyrhizi). The plants are placed in a greenhouse at a temperature of about 20° C. and a relative atmospheric humidity of about 80%. Evaluation follows 11 days after the inoculation. 0% means an efficacy which corresponds to that of the control, whereas an efficacy of 100% means that no infection is observed.
In this test, the following compounds according to the invention show, at an active compound concentration of 100 ppm, an efficacy of 80% or more: […]

| Structure (SMILES) | pest or weed control at 500 ppm (Sphaerotheca fuliginea) [%] | pest or weed control at 500 ppm (Alternaria solani) [%] | pest or weed control at 100 ppm (Venturia inaequalis) [%] | pest or weed control at 500 ppm [1] [%] | pest or weed control at 500 ppm (Septoria tritici) [%] | Efficacy (%) (Phakopsora pachyrhizi) |
| --- | --- | --- | --- | --- | --- | --- |
| CC(C)C(O)(COc1ccc(OC(F)(F)F)cc1)c1cncnc1 (centres unmarked) [Compound 2] | 99 | 100 | 94 | 100 | 93 |  |
| CC(C)(C)C(O)(COc1ccc(OC(F)(F)F)cc1)c1cncnc1 (centres unmarked) [Compound 12] | 100 | 100 | 99 | 100 | 100 | 98 |
| CC(C)(C)C(O)(COc1ccc(SC(F)(F)F)cc1)c1cncnc1 (centres unmarked) [Compound 17] | 95 | 94 | 100 | 100 | 100 | 97 |
| CC1(C(O)(COc2ccc(OC(F)(F)F)cc2)c2cncnc2)CC1 (centres unmarked) [Compound 18] | 95 | 90 | 99 | 100 | 100 | 98 |
